Assay results: patent US20260234180A1, “AMINO ACID DERIVATIVE, PREPARATION METHOD THEREFOR, AND PHARMACEUTICAL COMPOSITION FOR TREATING HEPATITIS, COMPRISING SAME” (priority 2021, published 2026)

Target: T1, NTCP (Na+ taurocholate cotransporting peptide), HepG2-hNTCP-C4 cell line (Homo sapiens, UniProt Q14973)
T1 construct: expressed in transfected cells; host or cells: HepG2-hNTCP-C4 (HepG2 cells expressing human NTCP)
T1 sequence (Q14973 1-349): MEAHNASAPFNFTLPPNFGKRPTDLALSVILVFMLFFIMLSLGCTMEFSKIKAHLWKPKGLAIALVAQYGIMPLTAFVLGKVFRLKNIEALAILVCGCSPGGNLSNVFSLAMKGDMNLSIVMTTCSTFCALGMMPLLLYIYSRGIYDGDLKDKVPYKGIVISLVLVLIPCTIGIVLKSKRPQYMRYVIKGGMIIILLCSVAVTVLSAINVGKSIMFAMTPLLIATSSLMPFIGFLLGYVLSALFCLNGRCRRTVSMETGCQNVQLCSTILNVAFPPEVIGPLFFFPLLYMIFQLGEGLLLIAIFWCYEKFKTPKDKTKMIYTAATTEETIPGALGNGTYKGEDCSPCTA
Assay: Inhibition of binding between FITC-labelled PreS1 and NTCP expressing cell line, flow cytometry
Settings: for effect of inhibiting the binding between PreS1 and NTCP expressing cell lines by treatment concentration: 0.2 μM, 2 μM, 10 μM, 50 μM; for effect of inhibiting the binding between PreS1 and NTCP expressing cell lines by treatment concentration / ability to inhibit the binding between PreS1 and NTCP expressing cell lines (bile acid series): 20 nM PreS1; for ability to inhibit the binding between PreS1 and NTCP expressing cell lines (bile acid series) / relative fluorescence intensity compared to Comparative Example 1 (LCA): compound 50 µM; for relative fluorescence intensity compared to Comparative Example 1 (LCA): 20 nM PreS1, 4° C., 2 hours, lower = more inhibited binding
Procedure, shortened: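 HepG2-hNTCP-C4 cells were pre-chilled at 4 °C for 30 min, then exposed to 20 nM Myr-PreS1-Lys(FITC) plus compound at 4 °C for 2 h, mostly at 50 μM, with some series at 0.2–50 μM or 2–50 μM. After washes and EDTA detachment, cell-bound green fluorescence was read by flow cytometry.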

Row | SMILES | effect of inhibiting the binding between PreS1 and NTCP expressing cell lines by treatment concentration | ability to inhibit the binding between PreS1 and NTCP expressing cell lines (bile acid series) | relative fluorescence intensity compared to Comparative Example 1 (LCA)
1 | CC[C@@H](C)[C@H](NC(=O)CC[C@@H](C)[C@H]1CC[C@H]2[C@@H]3CC[C@@H]4C[C@H](O)CC[C@]4(C)[C@H]3CC[C@]12C)C(=O)O [Example 1, (2S,3R)-2-((R)-4-((3R,5R,8R,9S,10S,13R,14S,17R)-3-hydroxy-10,13-dimethyl-hexadecahydro-1H-cyclopenta[a]phenanthren-17-yl)pentanamido)-3-methylpentanoic acid] | concentration dependent | relatively excellent | low and lower
2 | CC[C@@H](C)[C@H](NC(=O)CC[C@@H](C)[C@H]1CC[C@H]2[C@@H]3[C@@H](O)C[C@@H]4C[C@H](O)CC[C@]4(C)[C@H]3CC[C@]12C)C(=O)O [Example 2, (2S,3R)-2-((R)-4-((3R,5S,7S,8R,9S,10S,13R,14S,17R)-3,7-dihydroxy-10,13-dimethyl-hexadecahydro-1H-cyclopenta[a]phenanthren-17-yl)pentanamido)-3-methylpentanoic acid] |  | relatively excellent | 
3 | CC(C)[C@H](NC(=O)CC[C@@H](C)[C@H]1CC[C@H]2[C@@H]3[C@@H](O)C[C@@H]4C[C@H](O)CC[C@]4(C)[C@H]3CC[C@]12C)C(=O)O [Example 3, (S)-2-((R)-4-((3R,5S,7S,8R,9S,10S,13R,14S,17R)-3,7-dihydroxy-10,13-dimethyl-hexadecahydro-1H-cyclopenta[a]phenanthren-17-yl)pentanamido)-3-methylbutanoic acid] |  | relatively excellent | 
4 | CC[C@@H](C)[C@H](NC(=O)CC[C@@H](C)[C@H]1CC[C@H]2[C@@H]3CC[C@@H]4C[C@H](O)CC[C@]4(C)[C@H]3C[C@H](O)[C@]12C)C(=O)O [Example 10, (2S,3R)-2-((R)-4-((3R,5R,8R,9S,10S,12S,13R,14S,17R)-3,12-dihydroxy-10,13-dimethyl-hexadecahydro-1H-cyclopenta[a]phenanthren-17-yl)pentanamido)-3-methylpentanoic acid] |  | relatively excellent | 
5 | CC(C)[C@H](NC(=O)CC[C@@H](C)[C@H]1CC[C@H]2[C@@H]3CC[C@@H]4C[C@H](O)CC[C@]4(C)[C@H]3CC[C@]12C)C(=O)O [Example 44, (S)-2-((R)-4-((3R,5R,8R,9S,10S,13R,14S,17R)-3-hydroxy-10,13-dimethyl-hexadecahydro-1H-cyclopenta[a]phenanthren-17-yl)pentanamido)-3-methylbutanoic acid] | concentration dependent | relatively excellent | low and lower
